# Measured values from patent US20050222253A1, “Anti-cancer nitro- and thia-fatty acids” (priority 1999, published 2005).
# Entries after “also recorded” stand apart in the source; their conditions may differ.
# Key:
# [1] = test system: MCF-7 cells; assay: Killing of MCF-7 breast cancer cells in vitro; assay type: cell-based, human; conditions: in vitro (FIG. 7); compared with 20:4n-6 toxicity
# From the text: While interference with 5-LOX or 12-LOX activity individually impacts on growth rates of human breast cancer MCF-7 cells^(55,56), the simultaneous modification of the activities of both enzymes at once may cause death. […] Lx4, a nitroso-compound with the same number of carbon atoms and degree of unsaturation as Lx9 but lacking a COOH group, was ineffective (FIG. 7).
# [2] = biological target: T1, 5-LO (Solanum tuberosum, UniProt P37831); assay: 5-LO catalysed oxidation of the nitro compounds (substrate test); assay type: biochemical; conditions: pH 6.3 buffer, 234 nm
# T1 sequence (P37831 whole entry): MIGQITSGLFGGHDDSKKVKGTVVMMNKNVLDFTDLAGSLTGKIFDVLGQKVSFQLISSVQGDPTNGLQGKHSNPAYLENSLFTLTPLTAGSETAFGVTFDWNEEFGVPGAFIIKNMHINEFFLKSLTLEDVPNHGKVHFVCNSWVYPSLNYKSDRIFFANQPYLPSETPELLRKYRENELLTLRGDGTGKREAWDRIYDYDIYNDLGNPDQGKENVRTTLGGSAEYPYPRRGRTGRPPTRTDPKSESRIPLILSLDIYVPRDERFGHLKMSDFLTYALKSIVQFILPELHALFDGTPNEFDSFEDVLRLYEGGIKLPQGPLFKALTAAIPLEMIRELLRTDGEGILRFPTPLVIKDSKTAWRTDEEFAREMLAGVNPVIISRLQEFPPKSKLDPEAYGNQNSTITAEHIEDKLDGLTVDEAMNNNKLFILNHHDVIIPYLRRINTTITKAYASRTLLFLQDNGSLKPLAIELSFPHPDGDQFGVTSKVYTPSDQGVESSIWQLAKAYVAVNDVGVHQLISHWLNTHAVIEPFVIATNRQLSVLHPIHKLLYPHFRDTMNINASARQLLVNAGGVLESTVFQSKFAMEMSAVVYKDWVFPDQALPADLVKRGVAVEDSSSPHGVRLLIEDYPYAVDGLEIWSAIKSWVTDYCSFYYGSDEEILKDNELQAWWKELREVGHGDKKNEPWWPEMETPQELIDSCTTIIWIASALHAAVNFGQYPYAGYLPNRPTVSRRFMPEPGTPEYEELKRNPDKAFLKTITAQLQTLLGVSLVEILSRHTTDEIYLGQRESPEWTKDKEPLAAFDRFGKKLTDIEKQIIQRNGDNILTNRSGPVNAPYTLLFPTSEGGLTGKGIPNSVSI
# Experimental: (§1) Based on this consideration, 5-LO, 12-LO and 15-LO catalysed oxidation of the nitro compounds (4a, 4b, 6a, 6b, 8a and 8b) was investigated. Each of the nitro compounds was treated with 15-LO in pH 9.0 buffer (or 5-LO in pH 6.3 buffer and 12-LO in pH 7.4 buffer), and the formation of 15-hydroperoxy derivatives (or 5-hydroperoxy or 12-hydroperoxy derivatives) over time was monitored by LW spectroscopy at 234 nm.
# [3] = biological target: T1, 5-LO; assay: Effect on 5-LO catalysed oxidation of arachidonic acid; assay type: biochemical; conditions: preliminary experiment; purified enzyme; result in words
# Experimental: as §1, with “nm. […]” for “nm.”
# [4] = biological target: T2, 15-LO (Glycine max, UniProt P08170); assay: Effect on 15-LO catalysed oxidation of arachidonic acid; assay type: biochemical, soybean; conditions: preliminary experiment, result in words
# T2 construct: purchased Sigma Chemical Company
# T2 sequence (P08170 1-839): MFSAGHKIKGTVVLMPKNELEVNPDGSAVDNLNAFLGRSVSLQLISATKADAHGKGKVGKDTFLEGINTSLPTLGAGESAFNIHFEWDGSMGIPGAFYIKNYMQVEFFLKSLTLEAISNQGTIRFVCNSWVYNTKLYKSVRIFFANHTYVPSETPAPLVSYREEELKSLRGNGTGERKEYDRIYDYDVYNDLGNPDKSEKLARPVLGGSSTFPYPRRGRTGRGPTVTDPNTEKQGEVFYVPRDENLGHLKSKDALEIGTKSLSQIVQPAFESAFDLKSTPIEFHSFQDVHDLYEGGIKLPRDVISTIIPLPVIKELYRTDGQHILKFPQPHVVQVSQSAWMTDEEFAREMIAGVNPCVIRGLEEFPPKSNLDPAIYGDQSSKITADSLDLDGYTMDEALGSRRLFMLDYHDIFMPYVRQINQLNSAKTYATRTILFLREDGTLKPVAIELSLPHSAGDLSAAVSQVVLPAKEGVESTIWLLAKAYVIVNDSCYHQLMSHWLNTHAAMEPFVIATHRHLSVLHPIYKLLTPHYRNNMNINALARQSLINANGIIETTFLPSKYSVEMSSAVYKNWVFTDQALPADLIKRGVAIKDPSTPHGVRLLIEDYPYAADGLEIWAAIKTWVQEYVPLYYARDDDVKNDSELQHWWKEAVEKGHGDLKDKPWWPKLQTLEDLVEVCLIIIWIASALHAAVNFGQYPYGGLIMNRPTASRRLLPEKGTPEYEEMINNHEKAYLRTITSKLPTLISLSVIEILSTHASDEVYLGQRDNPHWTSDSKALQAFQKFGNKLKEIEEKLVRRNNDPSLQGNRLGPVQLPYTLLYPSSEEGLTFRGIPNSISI
# [5] = biological target: T2, 15-LO; assay: 15-LO catalysed oxidation of the nitro compounds (substrate test); assay type: biochemical, soybean; conditions: pH 9.0 buffer, 234 nm
# Experimental: as §1
# [6] = biological target: T3, 12-LO (Sus scrofa, UniProt P16469); assay: Effect on 12-LO catalysed oxidation of arachidonic acid; assay type: biochemical, porcine; conditions: preliminary experiment; result in words
# T3 construct: purchased Cayman Chemical Company
# T3 sequence (P16469 1-663): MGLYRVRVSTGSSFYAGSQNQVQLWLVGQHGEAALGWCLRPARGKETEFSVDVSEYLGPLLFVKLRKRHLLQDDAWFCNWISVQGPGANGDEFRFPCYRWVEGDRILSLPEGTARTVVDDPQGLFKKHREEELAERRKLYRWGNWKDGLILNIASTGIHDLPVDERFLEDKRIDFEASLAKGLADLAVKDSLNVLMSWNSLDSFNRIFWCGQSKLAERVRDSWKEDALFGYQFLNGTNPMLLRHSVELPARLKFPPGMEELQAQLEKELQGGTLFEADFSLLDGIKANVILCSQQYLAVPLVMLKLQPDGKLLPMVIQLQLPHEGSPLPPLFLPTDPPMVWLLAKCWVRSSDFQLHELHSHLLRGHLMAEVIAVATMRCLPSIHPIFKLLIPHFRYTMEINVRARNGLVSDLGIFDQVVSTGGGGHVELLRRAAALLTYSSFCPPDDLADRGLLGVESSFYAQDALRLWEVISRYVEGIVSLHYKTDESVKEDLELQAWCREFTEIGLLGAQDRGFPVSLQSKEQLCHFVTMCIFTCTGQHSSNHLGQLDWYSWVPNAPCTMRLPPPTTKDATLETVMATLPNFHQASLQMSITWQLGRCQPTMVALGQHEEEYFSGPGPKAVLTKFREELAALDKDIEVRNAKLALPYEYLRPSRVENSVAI
# Experimental: as §1
# A number of Lx compounds were tested for anti 5-LOX and 12-LOX activities in the human breast cancer cell line, MCF-7. […] The ability of 5-LOX and 12-LOX to produce oxidated products of 20:4n-6 with a different absorption wavelength in the presence of nitroso-PUFA was examined and is shown in the progress curves in FIG. 6. […] Within cells, activation of 5-LOX is facilitated by 5-LOX activating protein (FLAP). Thus, in intact cells, Lx7 and Lx9 may be able to activate 5-LOX at lower concentrations than those required in the purified enzyme system shown in FIG. 6. […] By being able to activate 5-LOX and suppress 12-LOX, these compounds have the desired characteristics of anti-breast cancer agents as discussed previously.
# (§2) 15-LO was obtained from Sigma Chemical Company, and 12-LO from Cayman Chemical Company. Arachidonic acid 1, linolenyl alcohol 57a, gamma linolenyl alcohol 5b, arachidonyl alcohol 57c and docosahexaenyl alcohol 57d were purchased from Nu-Chek Prep. Inc. Elysian, Minn., USA. Other chemicals were commercially available from Aldrich Chemical Company.
# [7] = biological target: T3, 12-LO; assay: 12-LO catalysed oxidation of the nitro compounds (substrate test); assay type: biochemical, porcine; conditions: pH 7.4 buffer, 234 nm
# Experimental: as §1
# [8] = biological target: T2, 15-LO; assay: Effect on 15-LO catalysed oxidation of arachidonic acid; assay type: biochemical, soybean; conditions: varying concentrations of compound
# Experimental: as §1
# The inhibitor constant (Ki or KI) of compound 8a was also determined.
# as §2
# [9] = listed as (all-Z)-1-nitrotricosa-8,11,14,17-tetraenoic acid
compound,measurement,setting,value
"CCCCC/C=C\C/C=C\C/C=C\C/C=C\CCCC(CCC(=O)O)[N+](=O)[O-] (centres unmarked) [Lx7, (all-Z)-4-Nitrotricosa-8,11,14,17-tetraenoic acid]",Killing of MCF-7 tumour cells,[1],kill these tumour cells
same,Substrate for 5-LO (formation of 5-hydroperoxy derivative),[2],not for 5-LO
same,Effect on 5-LO catalysed oxidation of AA,[3],can activate 5-LOX; also recorded: Activatory
same,Effect on 15-LO catalysed oxidation of AA,[4],Substrate
same,Substrate for 15-LO (formation of 15-hydroperoxy derivative),[5]; listed as 6b,served as a substrate
same,Substrate for 15-LO (formation of 15-hydroperoxy derivative),[5]; [9],good substrate; also recorded: comparable to that of arachidonic acid
same,Effect on 12-LO catalysed oxidation of AA,[6],Substrate
same,Substrate for 12-LO (formation of 12-hydroperoxy derivative),[7],substrate for 12-LOX
same,Substrate for 12-LO (formation of 12-hydroperoxy derivative),[7]; listed as 6b,served as a substrate
same,Substrate for 12-LO (formation of 12-hydroperoxy derivative),[7]; [9],good substrate
"CCCCCCCCCCCCCCCCCC(CCC(=O)O)(CCC(=O)O)[N+](=O)[O-] [Lx8, 3-Heptadecyl-3-nitropentane-1,5-dicarboxylic acid]",Effect on 5-LO catalysed oxidation of AA,[3],Nil
same,Effect on 15-LO catalysed oxidation of AA,[4],Inhibitory
same,Effect on 15-LO catalysed oxidation of AA,"[4]; listed as 3-heptadecyl-3-nitropentane-1,5-dicarboxylic acid",selective inhibitors
same,Effect on 15-LO catalysed oxidation of AA,[4]; listed as 8a,inhibitory effect
same,Inhibition pattern on 15-LO (1/v vs 1/[s]),[8],mixed inhibition pattern
same,Effect on 12-LO catalysed oxidation of AA,[6],Activatory
same,melting point,,102 °C
